Laboratory results as given in US9439968B2, “Amine-containing lipidoids and uses thereof” (Massachusetts Institute of Technology, priority 2012, dated 2016).

What was measured:
[1] = test system: HeLa cells stably modified to express both firefly and Renilla luciferase; assay: In vitro transfection of HeLa cells with lipid nanoparticles (firefly luciferase silencing); type: cell-based; details: 40 nM anti-firefly luciferase siRNA formulated with lipidoid; firefly normalized to Renilla; crude lipidoids
Factor VII = assay: In vivo Factor VII gene silencing in mouse hepatocytes; set-up: species or system mice; details: for Relative FVII Activity: tail vein, serum two days post-injection
[2] = Nanoparticle characterization; type: physicochemical
Serum clinical chemistry = type: in vivo, mice; details: 72 hours after single 3 mg/kg dose or four once weekly 3 mg/kg doses
Method: The mice had been injected with either a single 3 mg/kg dose of total siRNA or four 3 mg/kg doses (1× per week for four weeks). Blood was drawn for analysis 72 hours post-final injection. There were no statistically significant changes in any of the clinical chemistry parameters for any of the treated groups compared to controls (as evaluated by a student t-test). Error bars represent standard deviation (n=3-5).
(§1) Post-sacrifice, cardiac sticks were immediately performed on animals that had been dosed with either 304O13 or C12-200 lipid nanoparticles. Blood was centrifuged in serum separator tubes at 5,000 rpm for 10 minutes, and serum was analyzed for various hematological parameters. Serum chemistry was evaluated on a Beckman Olympus AU400 Serum Chemistry Analyzer. Cytokines were analyzed using Bio-Plex Pro Mouse Cytokine 23-Plex Assay kits (Luminex Corporation, Austin, Tex.) on the Bio-Plex 200 system, according to manufacturer instructions.
A preliminary safety assessment was conducted on the lead LNP, 304O13, and it was compared to another previously-discovered LNP formulation, C12-200 (Love, K. T. et al. Lipid-like materials for low-dose, in vivo gene silencing. PNAS 107, 1864-1869 (2010)). […] Serum cytokine levels for both materials were assessed in mice four hours after a 3 mg/kg IV bolus injection (total siRNA). […]

[3] = Histology (H&E) of liver, spleen, kidneys and pancreas; type: in vivo, mice; details: for dose at which liver necrosis was observed: single-dose studies (0-10 mg/kg)
Method: Organs were harvested from animals that had received various doses of either 304O13 or C12-200 lipid nanoparticles (C12-200 is a control non-degradable lipidoid shown below). Organs were fixed overnight in 4% paraformaldehyde and transferred to 70% ethanol prior to paraffin embedding, sectioning, and H & E staining.
Histological analysis was performed through H&E staining on sections from the liver, spleen, kidneys and pancreas. […] Pancreatic inflammation and islet cell enlargement were detected at C12-200 doses ≧2 mg/kg. […] Multi-dose studies were also conducted in which mice received four injections of 0.3, 1, 2, 3, or 5 mg/kg, once per week for four weeks. […] There was no sign of liver toxicity in any of the 304O13 groups up to 5 mg/kg.

Lipidoid hydrolysis = type: physicochemical; details: 6 N HCl reflux 24 h; KOH in EtOH/H2O reflux 41 h
Method: To a 25 ml round bottom flask was added 304O13 (0.250 g, 0.263 mmol, 1 equiv). For acidic hydrolysis, 10 ml of a solution of 6 N HCl was added to the flask to afford a cloudy heterogeneous solution. The reaction was heated to reflux to afford a clear, homogeneous solution and was stirred at reflux for 24 hours. For basic hydrolysis, 10 ml of a solution of KOH in EtOH/H2O (solution=5.61 g KOH in 47.5 ml EtOH w/2.5 ml distilled H2O) was added to the flask to afford a clear colorless solution. The reaction was heated to reflux and stirred for 41 h. […] Reactions were concentrated to dryness under reduced pressure and diluted with CDCl3. The basic reaction was filtered to remove excess KOH. Proton NMR analysis was performed in CDCl3. Proton nuclear magnetic resonance spectra were recorded with a Bruker Avance 400 spectrometer, are depicted in parts per million on the δ scale, and are referenced from the residual protium in the NMR solvent (CDCl3: δ 7.26 (CHCl3).
The acrylate-based lipidoids provided herein also contain hydrolysable ester moieties, functional groups which are commonly incorporated into delivery vehicles to promote physiological degradation (Staubli, A., Ron, E. & Langer, R. J. Am. Chem. Soc. 112, 4419-4424 (1990); van Dijkhuizen-Radersma, et al. Biomaterials 23, 4719-4729 (2002); Geng, Y. & Discher, D. E. J. Am. Chem. Soc. 127, 12780-12781 (2005)).

CD45 = assay: In vivo CD45 silencing in leukocyte populations; details: peritoneal cavity and spleen, three days post intravenous delivery
[4] = Biodistribution of Cy5.5-labeled siRNA (IVIS, Odyssey, confocal); details: liver harvested one hour post-injection
Serum cytokine profiling = type: in vivo, mice; details: four hours after 3 mg/kg IV bolus (total siRNA)
Method: as §1
Cytokine analysis was done by injecting either 304O13 or C12-200 nanoparticles at an siRNA dose of 3 mg/kg. Four hours post-injection, blood was harvested via cardiac stick and serum was isolated. Cytokine levels were quantified using an ELISA assay.
A preliminary safety assessment was conducted on the lead LNP, 304O13, and it was compared to another previously-discovered LNP formulation, C12-200 (Love, K. T. et al. Lipid-like materials for low-dose, in vivo gene silencing. PNAS 107, 1864-1869 (2010)). […] Serum cytokine levels for both materials were assessed in mice four hours after a 3 mg/kg IV bolus injection (total siRNA). […] Clinical chemistry parameters were evaluated for both materials 72 hours after a single dose of 3 mg/kg and after four once weekly doses of 3 mg/kg each.

[5] = multi-dose, four injections once per week for four weeks

CCCCCCCCCCCCCOC(=O)CCN(CCC(=O)OCCCCCCCCCCCCC)CCN(CCC(=O)OCCCCCCCCCCCCC)CCN(CC)CC [Lipidoid 123O13]
Relative Luciferase Activity [1]: 0.22 | Relative FVII Activity (Factor VII; 0.1 mg/kg siRNA): 0.86 | Relative FVII Activity (Factor VII; 0.5 mg/kg siRNA): 0.50 | Relative FVII Activity (Factor VII; 2 mg/kg siRNA): 0.00 | Relative FVII Activity (Factor VII; 5 mg/kg siRNA): 0.00

CCCCCCCCCCCCOC(=O)CCN(CCC(=O)OCCCCCCCCCCCC)C[C@@H]1CCCN1CCC(=O)OCCCCCCCCCCCC [Lipidoid 154O12]
Relative Luciferase Activity [1]: 0.33 | Relative FVII Activity (Factor VII; 5 mg/kg siRNA): 0.99

CCCCCCCCCCCCCCOC(=O)CCN(CCC(=O)OCCCCCCCCCCCCCC)[C@@H](CO)[C@H](C)O [Lipidoid 196O14]
Relative Luciferase Activity [1]: 0.38 | Relative FVII Activity (Factor VII; 5 mg/kg siRNA): 0.82

CCCCCCCCCCCCCCOC(=O)CCN(CCC(=O)OCCCCCCCCCCCCCC)CCC1CCN(CCC(=O)OCCCCCCCCCCCCCC)CC1 [Lipidoid 205O14]
Relative Luciferase Activity [1]: 0.43 | Relative FVII Activity (Factor VII; 5 mg/kg siRNA): 0.83

CCCCCCCCCCCCCOC(=O)CCN(C)CCCN(CC)CCCN(C)CCC(=O)OCCCCCCCCCCCCC [Lipidoid 218O13]
Relative Luciferase Activity [1]: 0.41 | Relative FVII Activity (Factor VII; 5 mg/kg siRNA): 0.73

CCCCCCCCCCCCCOC(=O)CCN(CCC(=O)OCCCCCCCCCCCCC)CC1CCCN1C (stereo not shown) [Lipidoid 232O13]
Relative Luciferase Activity [1]: 0.39

CCCCCCCCCCCCCOC(=O)CCN(CCC(=O)OCCCCCCCCCCCCC)CC1CCCN(C)C1 (stereo not shown) [Lipidoid 235O13]
Relative Luciferase Activity [1]: 0.42 | Relative FVII Activity (Factor VII; 5 mg/kg siRNA): 0.39

CCCCCCCCCCCCCOC(=O)CCN(C)CCN(CCN(C)CCC(=O)OCCCCCCCCCCCCC)CCN(C)CCC(=O)OCCCCCCCCCCCCC [Lipidoid 304O13]
Relative Luciferase Activity [1]: 0.08 | Relative FVII Activity (Factor VII; 0.1 mg/kg siRNA): 0.54 | Relative FVII Activity (Factor VII; 0.5 mg/kg siRNA): 0.23 | Relative FVII Activity (Factor VII; 2 mg/kg siRNA): 0.02 | Relative FVII Activity (Factor VII; 5 mg/kg siRNA): 0.01 | time for Factor VII levels to return to baseline (Factor VII; optimized 304O13, single injection at 0.1 mg/kg): ≤ 18 days | siRNA Entrapment ([2]; lipid nanoparticle, RiboGreen RNA assay): 84.2% | Diameter ([2]; lipid nanoparticle, average effective diameter): 86.0 nm | Zeta Potential ([2]; lipid nanoparticle, neutral pH): 13.7 mV | pKa ([2]; nanoparticle surface, TNS assay): 6.8 | albumin, ALT, AST, ALP, total bilirubin, GGT (Serum clinical chemistry): no toxicologically significant increases | doses with no sign of liver toxicity [3, 5]: up to 5 mg/kg | dose at which a small amount of apoptosis in splenic red pulp was observed ([3]; single-dose studies): 10 mg/kg | dose at which liver necrosis was observed [3]: 10 mg/kg | degradation under hydrolytic conditions (1H NMR, TLC) (Lipidoid hydrolysis): degraded to the anticipated alkyl-alcohol product | CD45 silencing in immune cells (CD45): most robust CD45 silencing | siRNA distribution within liver (confocal microscopy) [4]: siRNA accumulation throughout nearly all hepatocellular tissue

CCCCCCCCCCCCOC(=O)CCN(CCC(=O)OCCCCCCCCCCCC)CC1(C)CC(N(CCC(=O)OCCCCCCCCCCCC)CCC(=O)OCCCCCCCCCCCC)CC(C)(C)C1 (stereo not shown) [Lipidoid 315O12]
Relative Luciferase Activity [1]: 0.30 | Relative FVII Activity (Factor VII; 5 mg/kg siRNA): 0.99 | CD45 silencing in immune cells (CD45): modest CD45 silencing

CCCCCCCCCCCCCOC(=O)CCN(CCC(=O)OCCCCCCCCCCCCC)CCN(C)CCCN(C)CCN(CCC(=O)OCCCCCCCCCCCCC)CCC(=O)OCCCCCCCCCCCCC [Lipidoid 503O13]
Relative Luciferase Activity [1]: 0.07 | FVII knockdown with control (non-targeting) siRNA (Factor VII; LNP encapsulating control siRNA): did not result in FVII knockdown

CCCCCCCCCCC(O)CN(CCN1CCN(CCN(CC(O)CCCCCCCCCC)CC(O)CCCCCCCCCC)CC1)CCN(CC(O)CCCCCCCCCC)CC(O)CCCCCCCCCC (stereo not shown) [Lipidoid C12-200, reference compound]
serum IL-6, IP-10, KC and MCP-1 levels vs PBS control and 304O13 groups (Serum cytokine profiling): elevated | albumin, ALT, AST, ALP, total bilirubin, GGT (Serum clinical chemistry): no toxicologically significant increases | doses at which liver necrosis and inflammation were observed [3, 5]: ≥ 1 mg/kg | doses at which pancreatic inflammation and islet cell enlargement were detected ([3]; single-dose studies): ≥ 2 mg/kg | dose at which liver necrosis was observed [3]: 7.5 mg/kg
